In patent US7838542B2, “Bicyclic compositions and methods for modulating a kinase cascade” (Kinex Pharmaceuticals, LLC, priority 2006, dated 2010):
pIC50: −log10 of the molar value.

Tests used:
Fyn = Fyn (Homo sapiens, UniProt P06241); assay: Isolated kinase assay, Fyn; format: biochemical
From the text: (§1) Table XV illustrates percent activity of isolated kinases in the presence of the AstraZeneca ATP-competitive inhibitor (KX-328, AZ-28) or KX2-391 relative to control (untreated) isolated kinases.

Shc Y239/240 = assay: Intracellular phosphorylation: Shc Y239/240; format: cell-based; details: c-Src/NIH-3T3 and HT-29 cells
Experimental: (§2) HT29 (colon cancer) and c-Src527F/NIH-3T3 (Src transformed) cell lines were treated with KX2-391 or with AstraZeneca's ATP competitive Src inhibitor AZ28. AZ28 serves as a positive comparator to show what a validated Src inhibitor should do in these assays. After treatment with compound, cells were lysed, subjected to PAGE and probed with a battery of antibodies. […] In addition, off-target protein phosphorylation was also investigated. Further, induction of apoptosis was evaluated via Caspase 3 cleavage. Multiple doses of each compound were tested because the trends in response to increasing drug concentration are the most reliable indicator of activity.
(§3) The same range of multiples of the GI50 for AZ28 in these two cell lines was run as a comparison.

Src = Src (Homo sapiens, UniProt P12931); assay: Isolated kinase assay and titration, Src; format: biochemical; details: titration data
From the text: as §1

PKCα(h) = PKCα(h) (Homo sapiens, UniProt P17252); assay: Isolated kinases, percent activity relative to control (Table XV), PKCα; format: biochemical; details: @ 10 μM
From the text: as §1

Caspase-3 = assay: Induction of apoptosis via Caspase 3 cleavage; format: cell-based; details: HT29 and c-Src527F/NIH-3T3 cells
Experimental: as §2
Cleavage of Caspase-3 is a good measure of induction of apoptosis.

[1] = tested on: PDGF receptor tyrosine kinase Y572/574; assay: PDGF receptor autophosphorylation Y572/574; format: cell-based; details: c-Src/NIH-3T3 cells
Experimental: as §2
PDGF receptor tyrosine kinase autophosphorylates on Y572/574. This is thought not to be a direct Src substrate in cells. […] PDGF receptor tyrosine kinase Y572/574 was not detected in HT29 cells with no drug added (as well as with drug added).

isolated kinases = assay: Isolated kinases panel, percent activity relative to control (Table XV); format: biochemical
From the text: as §1

[2] = tested on: PDGF receptor tyrosine kinase; assay: Isolated kinase assay, PDGF receptor tyrosine kinase; format: biochemical; details: @ 10 μM
From the text: as §1

Pyk2(h) = Pyk2(h) (Homo sapiens, UniProt Q14289); assay: Isolated kinases, percent activity relative to control (Table XV), Pyk2; format: biochemical; details: @ 10 μM
From the text: as §1

EGFR tyrosine kinase = EGFR tyrosine kinase autophosphorylation; format: cell-based; details: c-Src/NIH-3T3 and HT-29 cells
Experimental: as §2
This site is not a direct Src phosphorylation site.

FGFR2(h) = FGFR2(h) (Homo sapiens, UniProt P21802); assay: Isolated kinases, percent activity relative to control (Table XV), FGFR2; format: biochemical; details: @ 10 μM
From the text: as §1

total phosphotyrosine = assay: Total phosphotyrosine levels; format: cell-based; details: HT29 and c-Src527F/NIH-3T3 cells
Experimental: as §2

ZAP-70(h) = ZAP-70(h) (Homo sapiens, UniProt P43403); assay: Isolated kinases, percent activity relative to control (Table XV), ZAP-70; format: biochemical; details: @ 10 μM
From the text: as §1

[3] = tested on: c-Src/NIH-3T3 engineered cell line; assay: Src-driven cell growth, c-Src/NIH-3T3; format: cell-based
[4] = tested on: NCI human colon cancer cell line HT29; assay: Cell growth, HT29; format: cell-based
Yes = Yes (Homo sapiens, UniProt P07947); assay: Isolated kinase assay, Yes; format: biochemical
From the text: as §1

MAPK2(h) = MAPK2(h) (Homo sapiens, UniProt P28482); assay: Isolated kinases, percent activity relative to control (Table XV), MAPK2; format: biochemical; details: @ 10 μM
From the text: as §1

Src-Y416 = assay: Intracellular phosphorylation: Src-Y416 autophosphorylation; format: cell-based; details: HT29 and c-Src527F/NIH-3T3 cells; 0.2×, 1×, 5×, 25× GI50
Experimental: as §2, §3

EGFRTK = EGFRTK (Homo sapiens, UniProt P00533); assay: Isolated kinase assay, EGFRTK; format: biochemical
From the text: as §1

IR(h) = IR(h) (Homo sapiens, UniProt P06213); assay: Isolated kinases, percent activity relative to control (Table XV), IR; format: biochemical; details: @ 10 μM
From the text: as §1

Paxillin Y-31 = assay: Intracellular phosphorylation: Paxillin Y-31; format: cell-based; details: c-Src/NIH-3T3 cells
Experimental: as §2, §3
Note: paxillin Y-31 was not detected in HT29 cells with or without added drug.

Lck = Lck (Homo sapiens, UniProt P06239); assay: Isolated kinase assay, Lck; format: biochemical
From the text: as §1

Abl = Abl (Homo sapiens, UniProt P00519); assay: Isolated kinase assay, Abl; format: biochemical
From the text: as §1

IGF-1R(h) = IGF-1R(h) (Homo sapiens, UniProt P08069); assay: Isolated kinases, percent activity relative to control (Table XV), IGF-1R; format: biochemical; details: @ 10 μM
From the text: as §1

CHK1(h) = CHK1(h) (Homo sapiens, UniProt O14757); assay: Isolated kinases, percent activity relative to control (Table XV), CHK1; format: biochemical; details: @ 10 μM
From the text: as §1

FAK Tyr 925 = assay: Intracellular phosphorylation: FAK Tyr 925; format: cell-based; details: c-Src/NIH-3T3 and HT-29 cells
Experimental: as §2, §3

Lyn = Lyn (Homo sapiens, UniProt P07948); assay: Isolated kinase assay, Lyn; format: biochemical
From the text: as §1

FAK Y397 = FAK Y397 autophosphorylation; format: cell-based; details: c-Src527F/NIH3T3 cells
Experimental: as §2
FAK Y397 is mainly a FAK autophosphorylation site and only a poor Src transphorylation site.

PI3 kinase = assay: Isolated kinases, percent activity relative to control (Table XV), PI3 kinase; format: biochemical; details: @ 10 μM
From the text: as §1

Chain of Lyn (P07948 whole entry): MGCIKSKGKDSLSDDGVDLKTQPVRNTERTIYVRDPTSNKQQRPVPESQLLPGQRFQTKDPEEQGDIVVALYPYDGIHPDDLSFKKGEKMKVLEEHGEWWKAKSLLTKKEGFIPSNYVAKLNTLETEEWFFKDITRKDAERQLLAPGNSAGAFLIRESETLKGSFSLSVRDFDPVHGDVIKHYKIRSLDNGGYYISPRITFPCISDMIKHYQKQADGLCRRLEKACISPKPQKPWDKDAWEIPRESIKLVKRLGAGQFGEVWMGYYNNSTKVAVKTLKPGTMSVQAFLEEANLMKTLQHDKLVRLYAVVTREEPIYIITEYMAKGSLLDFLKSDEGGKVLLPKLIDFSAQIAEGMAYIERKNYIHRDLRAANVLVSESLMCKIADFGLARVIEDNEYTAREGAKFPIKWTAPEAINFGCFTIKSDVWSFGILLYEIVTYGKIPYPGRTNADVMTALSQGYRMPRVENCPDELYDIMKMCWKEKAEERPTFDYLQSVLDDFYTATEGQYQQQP
Chain of Fyn (P06241 whole entry): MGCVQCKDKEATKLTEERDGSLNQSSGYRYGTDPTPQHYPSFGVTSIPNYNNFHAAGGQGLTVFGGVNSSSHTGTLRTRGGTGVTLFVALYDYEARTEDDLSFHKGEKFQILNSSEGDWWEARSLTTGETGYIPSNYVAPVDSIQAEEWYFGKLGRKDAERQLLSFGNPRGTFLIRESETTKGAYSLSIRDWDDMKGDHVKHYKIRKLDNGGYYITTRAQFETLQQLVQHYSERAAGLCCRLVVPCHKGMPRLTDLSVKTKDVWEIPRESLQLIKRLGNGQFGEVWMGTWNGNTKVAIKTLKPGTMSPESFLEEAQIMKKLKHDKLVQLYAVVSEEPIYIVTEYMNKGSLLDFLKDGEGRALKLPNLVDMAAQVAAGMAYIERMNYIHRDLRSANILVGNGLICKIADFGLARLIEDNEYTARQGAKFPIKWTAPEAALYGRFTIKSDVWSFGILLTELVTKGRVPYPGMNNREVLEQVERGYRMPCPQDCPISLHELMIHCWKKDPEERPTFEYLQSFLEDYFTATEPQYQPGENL
Chain of Abl (P00519 whole entry): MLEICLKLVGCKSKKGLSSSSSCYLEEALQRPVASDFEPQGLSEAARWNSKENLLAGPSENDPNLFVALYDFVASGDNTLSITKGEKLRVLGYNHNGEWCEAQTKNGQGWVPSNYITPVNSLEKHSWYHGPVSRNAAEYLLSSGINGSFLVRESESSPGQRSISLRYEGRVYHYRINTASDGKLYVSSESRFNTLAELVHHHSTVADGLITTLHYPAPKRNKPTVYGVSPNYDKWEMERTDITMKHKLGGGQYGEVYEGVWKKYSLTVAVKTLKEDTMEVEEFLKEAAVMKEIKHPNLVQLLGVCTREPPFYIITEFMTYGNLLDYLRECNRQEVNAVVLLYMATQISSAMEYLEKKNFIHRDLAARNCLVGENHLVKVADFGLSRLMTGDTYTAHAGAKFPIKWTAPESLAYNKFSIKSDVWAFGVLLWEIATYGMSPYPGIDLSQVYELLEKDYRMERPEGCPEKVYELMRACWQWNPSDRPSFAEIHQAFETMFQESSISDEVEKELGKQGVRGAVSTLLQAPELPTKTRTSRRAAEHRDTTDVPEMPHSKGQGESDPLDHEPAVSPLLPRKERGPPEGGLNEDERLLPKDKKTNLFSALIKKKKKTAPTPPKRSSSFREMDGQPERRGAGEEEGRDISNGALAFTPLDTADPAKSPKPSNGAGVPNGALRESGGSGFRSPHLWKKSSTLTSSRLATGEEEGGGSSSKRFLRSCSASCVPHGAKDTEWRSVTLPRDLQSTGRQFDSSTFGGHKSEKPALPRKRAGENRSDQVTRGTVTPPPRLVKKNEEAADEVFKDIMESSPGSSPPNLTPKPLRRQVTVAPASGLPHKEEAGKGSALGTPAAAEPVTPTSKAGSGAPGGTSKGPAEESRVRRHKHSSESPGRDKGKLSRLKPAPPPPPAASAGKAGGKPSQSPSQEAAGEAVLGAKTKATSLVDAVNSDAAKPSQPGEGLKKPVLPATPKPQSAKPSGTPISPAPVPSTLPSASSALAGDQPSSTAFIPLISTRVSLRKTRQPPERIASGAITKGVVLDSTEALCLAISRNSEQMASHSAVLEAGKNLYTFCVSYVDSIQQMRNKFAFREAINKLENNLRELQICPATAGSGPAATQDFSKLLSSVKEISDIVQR
Chain of Yes (P07947 whole entry): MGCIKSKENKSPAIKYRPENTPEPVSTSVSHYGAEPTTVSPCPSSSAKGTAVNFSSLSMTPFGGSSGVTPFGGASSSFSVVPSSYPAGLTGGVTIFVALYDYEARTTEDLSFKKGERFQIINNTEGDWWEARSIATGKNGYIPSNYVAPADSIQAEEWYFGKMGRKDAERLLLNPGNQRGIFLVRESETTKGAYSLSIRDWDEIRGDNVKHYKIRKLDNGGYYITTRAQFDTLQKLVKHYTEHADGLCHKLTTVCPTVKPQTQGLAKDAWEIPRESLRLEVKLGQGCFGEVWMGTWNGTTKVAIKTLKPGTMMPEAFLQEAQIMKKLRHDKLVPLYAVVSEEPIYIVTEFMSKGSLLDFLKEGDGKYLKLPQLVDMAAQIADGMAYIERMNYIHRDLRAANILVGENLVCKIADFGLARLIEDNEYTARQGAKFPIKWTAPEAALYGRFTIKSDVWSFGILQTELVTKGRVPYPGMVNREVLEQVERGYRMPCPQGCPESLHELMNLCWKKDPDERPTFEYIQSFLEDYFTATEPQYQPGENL
Chain of EGFRTK (P00533 25-1210): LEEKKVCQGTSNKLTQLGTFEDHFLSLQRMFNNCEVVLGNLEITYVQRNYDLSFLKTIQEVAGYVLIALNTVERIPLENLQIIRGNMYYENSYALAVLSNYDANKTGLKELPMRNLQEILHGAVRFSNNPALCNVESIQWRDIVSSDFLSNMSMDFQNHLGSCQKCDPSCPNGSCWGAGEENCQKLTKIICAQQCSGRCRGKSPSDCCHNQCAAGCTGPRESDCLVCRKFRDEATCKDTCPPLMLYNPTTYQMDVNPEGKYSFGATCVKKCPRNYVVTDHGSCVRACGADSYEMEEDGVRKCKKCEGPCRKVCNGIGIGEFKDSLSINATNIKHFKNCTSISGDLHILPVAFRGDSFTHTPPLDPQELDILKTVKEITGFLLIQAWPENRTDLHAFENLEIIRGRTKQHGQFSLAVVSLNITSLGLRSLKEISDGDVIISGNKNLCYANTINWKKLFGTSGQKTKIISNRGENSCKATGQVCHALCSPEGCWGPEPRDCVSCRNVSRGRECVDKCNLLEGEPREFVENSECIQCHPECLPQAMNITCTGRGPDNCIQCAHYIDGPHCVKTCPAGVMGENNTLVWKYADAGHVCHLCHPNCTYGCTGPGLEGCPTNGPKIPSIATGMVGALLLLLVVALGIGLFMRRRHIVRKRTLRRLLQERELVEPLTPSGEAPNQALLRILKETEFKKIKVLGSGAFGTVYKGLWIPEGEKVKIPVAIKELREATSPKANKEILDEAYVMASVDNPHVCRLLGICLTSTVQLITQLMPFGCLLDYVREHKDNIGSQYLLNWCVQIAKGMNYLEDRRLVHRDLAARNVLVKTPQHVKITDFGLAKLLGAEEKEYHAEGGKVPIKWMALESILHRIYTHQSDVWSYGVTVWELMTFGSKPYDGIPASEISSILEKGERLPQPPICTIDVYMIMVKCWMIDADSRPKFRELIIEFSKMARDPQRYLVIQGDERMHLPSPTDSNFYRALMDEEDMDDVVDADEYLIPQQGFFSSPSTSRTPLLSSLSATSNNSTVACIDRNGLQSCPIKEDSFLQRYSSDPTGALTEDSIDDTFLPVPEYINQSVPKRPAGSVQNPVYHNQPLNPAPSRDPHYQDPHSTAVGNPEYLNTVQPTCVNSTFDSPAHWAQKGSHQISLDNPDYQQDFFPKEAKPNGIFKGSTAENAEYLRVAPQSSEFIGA
Chain of Lck (P06239 whole entry): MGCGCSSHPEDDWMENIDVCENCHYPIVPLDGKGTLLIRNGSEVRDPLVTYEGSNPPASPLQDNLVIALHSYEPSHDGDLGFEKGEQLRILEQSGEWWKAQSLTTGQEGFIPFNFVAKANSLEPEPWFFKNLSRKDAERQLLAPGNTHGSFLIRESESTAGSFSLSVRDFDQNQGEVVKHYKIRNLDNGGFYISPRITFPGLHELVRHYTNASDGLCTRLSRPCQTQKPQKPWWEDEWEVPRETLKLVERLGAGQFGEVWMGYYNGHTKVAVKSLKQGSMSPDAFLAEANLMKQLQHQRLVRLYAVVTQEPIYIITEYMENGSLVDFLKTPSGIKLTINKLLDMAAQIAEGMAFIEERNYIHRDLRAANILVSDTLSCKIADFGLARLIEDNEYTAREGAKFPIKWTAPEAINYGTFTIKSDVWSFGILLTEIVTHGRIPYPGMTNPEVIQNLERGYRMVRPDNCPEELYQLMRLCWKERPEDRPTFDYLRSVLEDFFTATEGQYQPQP
Chain of ZAP-70(h) (P43403 whole entry): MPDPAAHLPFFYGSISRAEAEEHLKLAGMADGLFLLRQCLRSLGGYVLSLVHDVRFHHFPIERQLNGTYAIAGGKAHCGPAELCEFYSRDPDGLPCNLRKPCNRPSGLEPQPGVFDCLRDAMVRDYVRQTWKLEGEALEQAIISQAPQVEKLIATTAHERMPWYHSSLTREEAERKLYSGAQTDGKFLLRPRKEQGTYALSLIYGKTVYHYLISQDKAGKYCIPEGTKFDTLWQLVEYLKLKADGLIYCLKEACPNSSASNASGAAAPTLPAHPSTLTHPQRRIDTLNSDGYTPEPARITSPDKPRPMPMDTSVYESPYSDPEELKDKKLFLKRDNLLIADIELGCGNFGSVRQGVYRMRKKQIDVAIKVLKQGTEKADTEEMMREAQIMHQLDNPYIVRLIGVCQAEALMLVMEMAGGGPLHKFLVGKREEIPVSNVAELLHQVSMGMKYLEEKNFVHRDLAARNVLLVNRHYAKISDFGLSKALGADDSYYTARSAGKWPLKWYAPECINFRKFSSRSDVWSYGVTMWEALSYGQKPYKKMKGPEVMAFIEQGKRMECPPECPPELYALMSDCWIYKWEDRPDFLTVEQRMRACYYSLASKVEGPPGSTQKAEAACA

With `O=C(Cc1ccc(-c2ccc(OCCN3CCOCC3)cc2)cn1)NCc1ccccc1` [KX2-391] the “inhibition of isolated Fyn” value (Fyn) was “poor inhibition”, the “percent activity of isolated kinase relative to control, Fyn(h)” value (Fyn; @ 10 μM) was 85% and the “phosphorylation of Shc Y239/240” value (Shc Y239/240) was “inhibited Src trans-phosphorylation”. The pIC50 (Src) was 4.34, the “percent activity of isolated kinase relative to control, PKCα(h)” value (PKCα(h)) was 111% and the “induction of apoptosis (Caspase-3 cleavage)” value (Caspase-3) was “very effective in inducing apoptosis”. The PDGF receptor autophosphorylation [1] was “Some effect is seen”, the “activity against isolated kinases” value (isolated kinases) was “weak activity against isolated kinases” and the “percent activity of isolated kinase relative to control, PDGFRβ(h)” value [2] was 110%. The “percent activity of isolated kinase relative to control, Pyk2(h)” value (Pyk2(h)) was 97%, the “EGFR tyrosine kinase autophosphorylation” value (EGFR tyrosine kinase) was “less active” and the “percent activity of isolated kinase relative to control, FGFR2(h)” value (FGFR2(h)) was 94%. For the same molecule, the total phosphotyrosine levels (total phosphotyrosine) was “reduction in the total phosphotyrosine levels”, the “percent activity of isolated kinase relative to control, ZAP-70(h)” value (ZAP-70(h)) was 108% and the GI50 [3] was 13 nM. The GI50 [4] was 23 nM, the “inhibition of isolated Yes” value (Yes) was “poor inhibition” and the “percent activity of isolated kinase relative to control, Yes(h)” value (Yes; @ 10 μM) was 92%. For the same molecule, the “percent activity of isolated kinase relative to control, MAPK2(h)” value (MAPK2(h)) was 112%, the Src-Y416 autophosphorylation (Src-Y416) was “expected dose response” and the “inhibition of isolated EGFRTK” value (EGFRTK) was “poor inhibition”. For the same molecule, the “percent activity of isolated kinase relative to control, EGFR(h)” value (EGFRTK; @ 10 μM) was 134%, the “percent activity of isolated kinase relative to control, IR(h)” value (IR(h)) was 112% and the “phosphorylation of Paxillin Y-31” value (Paxillin Y-31) was “inhibited Src trans-phosphorylation”. The “inhibition of isolated Lck” value (Lck) was “poor inhibition”, the “percent activity of isolated kinase relative to control, Lck(h)” value (Lck; @ 10 μM) was 109% and the “inhibition of isolated Abl” value (Abl) was “poor inhibition”. The “percent activity of isolated kinase relative to control, Ab1(h)” value (Abl; @ 10 μM) was 120%, the “percent activity of isolated kinase relative to control, IGF-1R(h)” value (IGF-1R(h)) was 101% and the “percent activity of isolated kinase relative to control, CHK1(h)” value (CHK1(h)) was 105%. For the same molecule, the “phosphorylation of FAK Tyr 925” value (FAK Tyr 925) was “inhibited Src trans-phosphorylation”, the “inhibition of isolated Lyn” value (Lyn) was “poor inhibition” and the “percent activity of isolated kinase relative to control, Lyn(h)” value (Lyn; @ 10 μM) was 113%. For the same molecule, the “FAK autophosphorylation (Y397)” value (FAK Y397) was “no inhibition of FAK autophosphorylation” and the “percent activity of isolated kinase relative to control, PI3 kinase” value (PI3 kinase) was 100%.
